Measured values published in ChEMBL document CHEMBL1148091, “Cyclopsychotride A, a biologically active, 31-residue cyclic peptide isolated from Psychotria longipes” (J Nat Prod, 1994).
pIC50: −log10 of the molar value.

How the values were obtained:
[1] = Displacement of [125I]NT from neurotensin receptor in human HT-29 cells; assay type: cell-based
HT-29 = assay: Antagonist activity at neurotensin receptor in human HT-29 cells assessed as effect on NT-induced intracellular Ca2+ increase by spectrofluorimetry; assay type: functional, cell-based

pIC50 [1]: 5.52
Compound: CC[C@H](C)[C@@H]1NC(=O)[C@@H]2CCCN2C(=O)[C@H](CS)NC(=O)CNC(=O)[C@H](CCC(=O)O)NC(=O)[C@H](CO)NC(=O)[C@H](CS)NC(=O)[C@H](C(C)C)NC(=O)[C@H](Cc2ccccc2)NC(=O)[C@H]([C@@H](C)CC)NC(=O)[C@@H]2CCCN2C(=O)[C@H](CS)NC(=O)[C@H]([C@H](C)O)NC(=O)[C@H](C(C)C)NC(=O)[C@H]([C@H](C)O)NC(=O)[C@H](C)NC(=O)[C@H](CC(C)C)NC(=O)[C@H](CC(C)C)NC(=O)CNC(=O)[C@H](CS)NC(=O)[C@H](CO)NC(=O)[C@H](CS)NC(=O)[C@H](CCCCN)NC(=O)[C@H](CO)NC(=O)[C@H](CCCCN)NC(=O)[C@H](C(C)C)NC(=O)[C@H](CS)NC(=O)[C@H](Cc2ccc(O)cc2)NC(=O)[C@H](CCCCN)NC(=O)[C@H](CC(N)=O)NC(=O)[C@H](CO)NC1=O [CYCLOPSYCHOTRIDE A]
Activity (HT-29): Dose-dependent effect
